What was measured:
Assay type in all cases: cell-based
[1] = target: T1, 5-hydroxytryptamine receptor 6 (Homo sapiens, UniProt P50406); assay: Displacement of [3H]LSD from human recombinant 5-HT6 receptor expressed in CHO-K1 cells at 1 uM incubated for 3 hrs by scintillation counting analysis
D(3) dopamine receptor [2] = target: T2, D(3) dopamine receptor (Homo sapiens, UniProt P35462); assay: Displacement of [3H]raclopride from human recombinant dopamine D3 receptor expressed in CHO-K1 cells at 1 uM incubated for 120 mins by liquid scintillation counting analysis
T2 sequence (P35462 whole entry): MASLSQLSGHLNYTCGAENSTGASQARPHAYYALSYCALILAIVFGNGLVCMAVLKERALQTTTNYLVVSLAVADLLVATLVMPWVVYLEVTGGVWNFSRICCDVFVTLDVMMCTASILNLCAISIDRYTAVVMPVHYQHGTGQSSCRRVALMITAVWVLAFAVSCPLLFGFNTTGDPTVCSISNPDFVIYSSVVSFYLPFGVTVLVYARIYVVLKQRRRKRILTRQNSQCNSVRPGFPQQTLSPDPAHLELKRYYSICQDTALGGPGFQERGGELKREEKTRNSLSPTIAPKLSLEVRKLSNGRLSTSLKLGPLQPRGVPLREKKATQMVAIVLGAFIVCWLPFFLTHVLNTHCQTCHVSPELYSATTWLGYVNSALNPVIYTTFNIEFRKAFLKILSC

D(2) dopamine receptor [3] = target: T3, D(2) dopamine receptor (Homo sapiens, UniProt P14416); assay: Displacement of [3H]raclopride from human recombinant dopamine D2 long receptor expressed in CHO-K1 cells at 1 uM incubated for 120 mins by scintillation counting analysis
T3 sequence (P14416 whole entry): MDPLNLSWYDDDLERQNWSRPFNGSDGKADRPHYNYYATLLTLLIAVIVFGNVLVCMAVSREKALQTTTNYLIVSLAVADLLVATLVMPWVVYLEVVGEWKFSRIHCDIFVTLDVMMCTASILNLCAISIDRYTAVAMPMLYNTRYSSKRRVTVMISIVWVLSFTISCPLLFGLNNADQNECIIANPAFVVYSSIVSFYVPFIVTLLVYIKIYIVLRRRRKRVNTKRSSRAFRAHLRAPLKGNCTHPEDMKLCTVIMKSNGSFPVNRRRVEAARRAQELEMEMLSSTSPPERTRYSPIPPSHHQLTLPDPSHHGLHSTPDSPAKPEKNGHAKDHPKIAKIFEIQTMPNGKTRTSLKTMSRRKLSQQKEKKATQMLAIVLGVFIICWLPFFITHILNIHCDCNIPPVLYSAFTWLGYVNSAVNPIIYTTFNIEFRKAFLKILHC

Histamine H3 receptor [4] = target: T4, Histamine H3 receptor (Homo sapiens, UniProt Q9Y5N1); assay: Displacement of N-alpha-[methyl-3H]methylhistamine dihydrochloride from human recombinant histamine H3 receptor expressed in CHO-K1 cells at 1 uM incubated for 30 mins by liquid scintillation counting analysis
T4 sequence (Q9Y5N1 whole entry): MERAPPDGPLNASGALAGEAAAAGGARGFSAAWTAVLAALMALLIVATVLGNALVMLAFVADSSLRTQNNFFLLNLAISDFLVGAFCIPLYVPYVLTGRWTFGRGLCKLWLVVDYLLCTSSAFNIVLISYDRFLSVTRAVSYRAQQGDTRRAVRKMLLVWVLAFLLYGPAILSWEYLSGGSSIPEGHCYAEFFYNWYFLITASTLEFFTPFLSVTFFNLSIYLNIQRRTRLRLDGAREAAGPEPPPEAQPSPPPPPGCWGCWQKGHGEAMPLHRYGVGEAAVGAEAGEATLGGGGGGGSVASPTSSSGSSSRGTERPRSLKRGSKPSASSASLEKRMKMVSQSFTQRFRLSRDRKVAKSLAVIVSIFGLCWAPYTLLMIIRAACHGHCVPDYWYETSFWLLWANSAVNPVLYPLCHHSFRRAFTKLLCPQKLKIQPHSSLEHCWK

[5] = target: T1, 5-hydroxytryptamine receptor 6; assay: Displacement of [3H]LSD from human recombinant 5-HT6 receptor expressed in CHO-K1 cells incubated for 3 hrs by scintillation counting analysis
Homo sapiens [6] = species on record: Homo sapiens; assay: Selectivity index, ratio of Ki for human recombinant dopamine D3 receptor expressed in CHO-K1 cells to Ki for human recombinant 5-HT6 receptor expressed in CHO-K1 cells
Homo sapiens [7] = species on record: Homo sapiens; assay: Selectivity index, ratio of Ki for human recombinant dopamine D2 long receptor expressed in CHO-K1 cells to Ki for human recombinant 5-HT6 receptor expressed in CHO-K1 cells
Homo sapiens [8] = species on record: Homo sapiens; assay: Selectivity index, ratio of Ki for human recombinant histamine H3 receptor expressed in CHO-K1 cells to Ki for human recombinant 5-HT6 receptor expressed in CHO-K1 cells
D(3) dopamine receptor [9] = target: T2, D(3) dopamine receptor; assay: Displacement of [3H]raclopride from human recombinant dopamine D3 receptor expressed in CHO-K1 cells incubated for 120 mins by liquid scintillation counting analysis
Histamine H3 receptor [10] = target: T4, Histamine H3 receptor; assay: Displacement of N-alpha-[methyl-3H]methylhistamine dihydrochloride from human recombinant histamine H3 receptor expressed in CHO-K1 cells incubated for 30 mins by liquid scintillation counting analysis
D(2) dopamine receptor [11] = target: T3, D(2) dopamine receptor; assay: Displacement of [3H]raclopride from human recombinant dopamine D2 long receptor expressed in CHO-K1 cells incubated for 120 mins by scintillation counting analysis
Homo sapiens [12] = species on record: Homo sapiens; assay: Selectivity index, ratio of Ki for human recombinant dopamine D3 receptor expressed in CHO-K1 cells to Ki for dopamine D2 long receptor expressed in CHO-K1 cells

T1 sequence (P50406 whole entry): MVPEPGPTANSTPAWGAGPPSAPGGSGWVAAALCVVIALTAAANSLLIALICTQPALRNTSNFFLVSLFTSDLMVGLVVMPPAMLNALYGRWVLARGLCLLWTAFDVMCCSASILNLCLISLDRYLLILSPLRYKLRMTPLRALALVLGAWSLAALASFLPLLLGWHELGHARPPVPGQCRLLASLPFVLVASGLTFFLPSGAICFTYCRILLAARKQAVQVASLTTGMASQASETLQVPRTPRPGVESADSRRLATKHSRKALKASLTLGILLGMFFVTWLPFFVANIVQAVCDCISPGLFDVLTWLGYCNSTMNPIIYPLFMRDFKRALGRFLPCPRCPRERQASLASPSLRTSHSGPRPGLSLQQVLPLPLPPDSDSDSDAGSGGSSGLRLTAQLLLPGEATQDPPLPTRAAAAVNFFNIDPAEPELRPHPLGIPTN

SMILES | inhibition [1] [%] | inhibition (D(3) dopamine receptor [2]) [%] | inhibition (D(2) dopamine receptor [3]) [%] | inhibition (Histamine H3 receptor [4]) [%] | Ki [5] [nM] | Ratio Ki (Homo sapiens [6]) | Ratio Ki (Homo sapiens [7]) | Ratio Ki (Homo sapiens [8]) | Ki (D(3) dopamine receptor [9]) [nM] | Ki (Histamine H3 receptor [10]) [nM] | Ki (D(2) dopamine receptor [11]) [nM] | Ratio Ki (Homo sapiens [12])
CN1CCC(c2cccc3c2CN(S(=O)(=O)c2ccccc2)C3)CC1 | 94 | 14 | 14 | 14 | 9 | > 100 | > 100 | > 100 |  |  |  | 
CCN1CCC(c2ccc3c(c2)CCN3S(=O)(=O)c2ccccc2)CC1 | 40 | 72 | 17 | 54 |  |  |  |  | 321 | 448 |  | 
O=S(=O)(c1ccccc1)N1CCc2c(N3CCN(C4CCC4)CC3)cccc21 | 51 | 60 | 60 | 59 | 266 |  |  |  | 449 | 580 | 355 | 
CCN1CCN(c2ccc3c(c2)CCN3S(=O)(=O)c2ccccc2)CC1 | 53 | 94 | 50 | 65 | 129 |  |  |  | 48 | 280 | 438 | 
CCN1CCN(c2cccc3c2CCN3S(=O)(=O)c2ccccc2)CC1 | 89 | 91 | 80 | 50 | 31 |  |  |  | 72 | 344 | 84 | 1.5
O=S(=O)(c1ccccc1)N1CCc2c(C3CCN(C4CCC4)CC3)cccc21 | 1 | 9 | 48 | 82 |  |  |  |  |  | 214 | 1040 | 
O=S(=O)(c1ccccc1)N1Cc2cccc(C3CCNCC3)c2C1 | 101 | 16 | 17 | 4 | 0.43 | > 100 | > 100 | > 100 |  |  |  | 
CCN1CCC(c2cccc3c2CCN3S(=O)(=O)c2ccccc2)CC1 | 59 | 58 | 25 | 50 | 170 |  |  |  | 591 | 317 |  | 
CN1CCC(c2ccc3c(c2)CCN3S(=O)(=O)c2ccccc2)CC1 | 86 | 48 | 14 | 59 | 128 |  |  |  | 401 | 299 |  | 
